Source: PubChem BioAssay (NCI)
Several values for one entry are separate records, joined by “and”; a condition that tells them apart may be missing. Identical values can stand only once.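 1) Cells in 96-well plates. 2) Compound, 48 h, 5 concentrations. 3) Linear interpolation between surrounding doses. 4) Unreached endpoint = highest concentration. Abbreviation: GI50, concentration required for 50% inhibition of growth. TGI: total growth inhibition.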

Columns and labels:
Test in all cases: inhibition of tumour cell growth, NCI panel, 48 h
KM12 colon = system: KM12 colon
SF-268 CNS = system: SF-268 CNS
SN12C renal = system: SN12C renal
NCI-H522 lung = system: NCI-H522 lung
SNB-19 CNS = system: SNB-19 CNS
HCT-116 colon = system: HCT-116 colon
UACC-62 melanoma = system: UACC-62 melanoma
NCI-H460 lung = system: NCI-H460 lung
SW-620 colon = system: SW-620 colon
HCT-15 colon = system: HCT-15 colon

Compound	GI50 (KM12 colon) [µM]	TGI (KM12 colon) [µM]	GI50 (SF-268 CNS) [µM]	TGI (SF-268 CNS) [µM]	GI50 (SN12C renal) [µM]	TGI (SN12C renal) [µM]	GI50 (NCI-H522 lung) [µM]	TGI (NCI-H522 lung) [µM]	GI50 (SNB-19 CNS) [µM]	TGI (SNB-19 CNS) [µM]	GI50 (HCT-116 colon)	TGI (HCT-116 colon) [µM]	GI50 (UACC-62 melanoma) [µM]	TGI (UACC-62 melanoma) [µM]	GI50 (NCI-H460 lung) [µM]	TGI (NCI-H460 lung) [µM]	GI50 (SW-620 colon)	TGI (SW-620 colon) [µM]	GI50 (HCT-15 colon) [µM]	TGI (HCT-15 colon) [µM]
N[C@@H]1CCCC[C@@H]1N.O=C([O-])CN(CP(=O)([O-])[O-])CP(=O)([O-])[O-].[Pt+2]	> 100	> 100	> 100	> 100	> 100	> 100	> 100	> 100	> 100	> 100	> 100 µM	> 100	> 100	> 100	> 100	> 100	> 100 µM	> 100	> 100	> 100
COC(=O)/C(=C/c1ccc(OC)cc1)NC(=O)c1ccccc1	–	> 100	–	> 100	–	> 100	–	–	–	> 100	–	> 100	–	> 100	–	> 100	–	> 100	–	> 100
OCC#Cc1ccccc1C#Cc1ccc(C#Cc2ccccc2C#CCO)s1	15.1	30.6	20.6	44.5	20.1	43	11.7	29.2	22.1	42.7	24.2 µM	50.1	19.5	43.4	24.7	91.5	18.4 µM	37.3	25.3	91.1
CC(C)(C)OC(=O)CN1CCc2c(sc3ncnc(N/N=C/c4cccc5ccccc45)c23)C1	3.53	9.8	3.59	24.3	3.65	9.04	2.16	12.4	4.73	32.1	1.65 µM	6.73	1.32	5.48	1.62	6.22	1.8 µM	7.96	2.2	9.57
CC(=O)OC1CCC2(C)C(=CCC3C4CCC5(OC6CC(C)CN(C(C)=O)C6C5C)C(C)=C4C(=O)C32)C1 (stereo not given)	–	37.6	–	31.4	–	46.5	–	29.4	–	32.7	–	36.7	–	18.5	–	35.1	–	> 100	–	33.6
O=[N+]([O-])/C=C\c1c[nH]c2ccc(OCc3ccccc3)cc12	–	8.86	–	25.6	–	10	–	22.4	–	16.5	–	3.27	–	14.1	–	25.1	–	7.31	–	–
O=[N+]([O-])c1ccc(/C=C(/c2ccc([N+](=O)[O-])o2)S(=O)(=O)c2ccccc2)o1	–	32.6	–	32.4	–	–	–	4.21	–	35.7	–	3.08	–	19.1	–	60.1	–	5.55	–	26
CC1SC(c2c(Cl)cccc2Cl)N(NC(=O)C(O)c2ccccc2)C1=O (stereo not given)	44.1	> 100	> 100	> 100	> 100	> 100	60.9	> 100	> 100	> 100	56 µM	> 100	50.2	> 100	> 100	> 100	> 100 µM	> 100	47.3	> 100
COc1ccc2c(c1)cn1c3ccc(O)cc3[nH]c(=O)c21	0.329	5.39	0.136	19.1	0.403	17.9	0.0442	1.24	0.203	19.5	0.0567 µM	1.61	0.151	6.02	0.138	1.62	0.043 µM	2.55	0.111	2.21
CC(CN1CCN(CC(C)Nc2ccnc3cc(Cl)ccc23)CC1)Nc1ccnc2cc(Cl)ccc12 (stereo not given)	–	> 51.8	–	> 36	–	> 71.6	–	21.3	–	> 79.9	–	12.9	–	32.5	–	14.3	2.82 µM	> 100	–	19.6
COc1cc(NCC2COc3c(ccc(OC)c3OC)C2=O)c([N+](=O)[O-])cc1OC (stereo not given)	–	> 100	–	> 100	–	> 100	–	> 100	–	> 100	–	> 100	–	> 100	–	> 100	–	> 100	–	> 100
Cc1cc(C)c2c(SCc3ccc(Cl)cc3Cl)nc(N)nc2n1	–	> 100	–	> 100	–	60.7	–	57.1	–	> 100	–	> 100	–	> 100	–	67.5	–	> 100	–	> 100
Cn1c2ccccc2c(=O)c2c([N+](=O)[O-])ccc(NCCN)c21	–	19.7	–	26	–	17.2	–	20.5	–	27.8	–	15.3	–	29.6	–	22.8	–	16.6	–	26.7
c1cc[c]([Sn]([S]c2cccc3cccnc23)([S]c2cccc3cccnc23)[c]2ccccc2)cc1	0.23	0.616	0.331	1.48	0.284	0.954	–	–	0.438	1.66	0.175 µM	0.324	0.186	0.43	0.228	0.643	0.14 µM	0.365	0.153	0.446
CCN(CC)CCOc1ccc2c(c1)C(=O)c1cc(OCCN(CC)CC)ccc1-2	5.36	24.9	8.5	33.1	12.6	45.1	12.4	27.5	26.3	61.7	3.45 µM	15.2	12.4	26.7	4.03	15.2	4.04 µM	20.6	12.1	44.6
COc1cc(NCc2ccccc2O)c2ncccc2c1	22.5	> 100	22.5	> 100	34	> 100	10.1	43	31.8	> 100	16.6 µM	63.4	11.2	53.1	15.8	> 100	32.2 µM	> 100	7.09	> 100
CC1(C)CC(=O)C(=[N+]=[N-])C(=O)C1	–	> 100	–	> 100	–	> 100	–	> 100	–	> 100	–	> 100	–	> 100	–	–	–	> 100	–	> 100

Compound	GI50 (KM12 colon) [µM]	TGI (KM12 colon) [µM]	GI50 (SF-268 CNS) [µM]	TGI (SF-268 CNS) [µM]	GI50 (SN12C renal) [µM]	TGI (SN12C renal) [µM]	GI50 (NCI-H522 lung) [µM]	TGI (NCI-H522 lung) [µM]	GI50 (SNB-19 CNS) [µM]	TGI (SNB-19 CNS) [µM]	GI50 (HCT-116 colon)	TGI (HCT-116 colon) [µM]	GI50 (UACC-62 melanoma) [µM]	TGI (UACC-62 melanoma) [µM]	GI50 (NCI-H460 lung) [µM]	TGI (NCI-H460 lung) [µM]	GI50 (SW-620 colon)	TGI (SW-620 colon) [µM]	GI50 (HCT-15 colon) [µM]	TGI (HCT-15 colon) [µM]
[C-]#[N+][C@]12C(=O)[C@H](CCC1(C)C)C(C)(C)[C@H]1C(=O)N(C)c3cccc2c31	9.99	> 100	> 100	> 100	41.9	> 100	–	–	70	> 100	3.73 µM	> 100	22.8	> 100	5.02	> 100	18.6 µM	> 100	58.5	> 100
C1=C(c2ccccc2)SC=C(c2ccccc2)S1	–	> 100	–	> 100	–	> 100	–	–	–	> 100	–	> 100	–	> 100	–	> 100	–	> 100	–	> 100
Cc1ccc(NC(=O)C2C(=O)N(c3ccc(C)c(C)c3)C(=O)/C2=N\NC(N)=S)cc1C (stereo not given)	–	> 100	–	> 100	–	> 100	–	> 100	–	> 100	–	> 100	–	> 100	–	–	–	> 100	–	> 100
Cc1cccc(C)c1NC(=O)CCC(=O)NC(N)=S	–	> 100	–	–	–	> 100	–	> 100	–	> 100	–	> 100	–	> 100	–	> 100	–	> 100	–	> 100
COc1cc2c([C@@H](OC(=O)c3ccccc3)c3ccc4c(c3)OCO4)nccc2c(OC)c1OC	–	–	–	> 100	–	> 100	–	> 100	–	> 100	–	> 100	–	> 100	–	> 100	–	> 100	–	> 100
CN1CCN(c2ccc(NC3=C(Cl)C(=O)c4ncccc4C3=O)cc2C#N)CC1	10.8	25.4	2.09	5.27	1.55	3.25	–	–	11	23	1.72 µM	3.36	1.78	3.61	13	30.9	1.49 µM	3.62	1.64	3.53
Cc1nc2cc(Nc3nc(Nc4ccc(F)cc4)nc(N4CCN(C)CC4)n3)ccc2n1Cc1ccccc1	1.73	3.25	1.86	4.08	1.67	3.34	1.6	3.21	2.47	7.42	1.33 µM	3.06	–	–	1.9	3.83	1.79 µM	3.95	1.55	3.48
COc1cc(Cl)c2c3c(c(C(=O)c4ccccc4)oc13)CCC2	–	–	–	–	–	> 100	–	–	–	> 100	–	> 100	–	> 100	–	> 100	–	> 100	–	> 100
Cc1ccc(C2C3=C(N=c4s/c(=C/c5ccc(Br)cc5)c(=O)n42)c2ccc4ccccc4c2OCC3)cc1 (stereo not given)	> 100	> 100	> 100	> 100	–	–	> 100	> 100	> 100	> 100	> 100 µM	> 100	67.9	> 100	> 100	> 100	> 100 µM	> 100	2.89	> 100
CC1CCP(=O)(c2ccccc2)CC1 (stereo not given)	–	> 100	–	> 100	–	> 100	–	–	–	> 100	–	–	–	> 100	–	> 100	–	> 100	–	> 100
CCCCCCCCCCCC(O)=C1C(=O)CC(O)CC1=O (stereo not given)	–	> 100	–	> 100	–	> 100	–	> 100	–	> 100	–	> 100	–	> 100	–	> 100	–	> 100	–	–
CCCCN(CCCC)C(=O)C(=O)C(C)C(=O)CC (stereo not given)	–	> 100	–	> 100	–	> 100	–	> 100	–	> 100	–	–	–	> 100	–	> 100	–	> 100	–	> 100
Cc1cc(C)cc(Nc2ccc([N+](=O)[O-])c(NCCN3CCOCC3)n2)c1	0.000947	> 100	–	85.2	0.0706	> 100	0.000235	–	–	–	0.00222 µM and 0.0146 µM	> 100	–	> 100	–	> 100	0.00176 µM and 0.0147 µM	> 100	0.000928	> 100
CC(=O)/C=C/C1=C(c2cccs2)c2ccccc2CC1	25.2	56.2	–	–	23.5	48.5	25.1	66.8	–	–	37.6 µM	> 100	17.6	33.2	–	–	33.9 µM	> 100	21.8	52.7
Cc1[nH]nc2c1C(=O)C=C(N(CCO)c1ccccc1)C2=O	–	> 100	–	–	–	> 100	–	> 100	–	> 100	–	> 100	–	> 100	–	–	–	> 100	–	> 100
O=[N+]([O-])[O-].O=[N+]([O-])[O-].[Au].[Au].c1ccc([P-]c2ccccc2)cc1.c1ccc([P-]c2ccccc2)cc1	46.3	> 100	65.1	> 100	–	–	3.64	46.3	> 100	> 100	44.2 µM	> 100	30	65.3	20.4	> 100	38.7 µM	> 100	27	> 100
